The values that follow come from publication PMC6358909, “Synthesis and Biochemical Evaluation of Lid-Open D-Amino Acid Oxidase Inhibitors” (Molecules, 2019).

The target of test [1] is T1, Human DAAO (Homo sapiens, UniProt P14920).
T1 construct: purchased TargetEx Ltd. (Dunakeszi, Hungary)
As to the kind of experiment: KYNA enzyme inhibition assay (D-kynurenine substrate, fluorescence). In kind it is biochemical. As to conditions: 5 µM FAD, pH 8, 37 °C 1 h, standard deviations in parenthesis. As for the experimental part: The prepared compounds were tested as DAAO inhibitors with the KYNA enzyme inhibitory assay. Although D-serine is a natural substrate of DAAO, its metabolite is not suitable for fluorometric evaluation. However in the applied assay, D-kynurenine can be metabolized by DAAO [19] and the metabolite (KYNA) has a favorable fluorescence property. Thus it can be used for fluorescence measurements.
D-2-Amino-4-(2-aminophenyl)-4-oxobutanoic acid (D-KYN) was used to measure D-amino acid oxidase activity based on the protocol described in ref. [18, 20]. Human DAAO (purchased from TargetEx Ltd. (Dunakeszi, Hungary)) was used for the measurements. The buffer contained 20 mM TRIS-HCl and 100 mM NaCl (pH = 8). Flavin adenine dinucleotide (FAD—obtained from Sigma (St. Louis, MO, USA)) in 5 µM concentration was also included in the assay. Compounds were dissolved originally in DMSO and the measured samples were diluted with the buffer solution (the final DMSO concentration was always below 5%). The mixed solution was incubated at 37 °C for 1 h. After the enzymatic reaction, ZnCl2 dissolved in H2O was added and vortex-mixed. Single point measurements were performed at 20 µm inhibitor concentration. For the IC50 measurements, the inhibitors were used at 5 nM, 50 nM, 500 nM, 2.5 µM, 5 µM, 10 µM, 50 µM. Measurements were carried out on a Citation3 cell imaging multi-mode microplate reader (BioTek Instruments Inc., Winooski, VT, USA) with […]. The applied wavelengths were 340 nm and 396 nm.
Result from the coupled HRP/Amplex Red assay for compound 13
Compound 13 was evaluated in both the KYNA and the coupled HRP/Amplex red assays. Assay […]
HRP/Amplex assay KYNA assay […]
hDAAO original concentration 1 µg / 1500 µL buffer 1 µg / 400 µL buffer hDAAO assay concentration 0.25 µg / 1500 µL buffer 0.25 µg / 400 µL buffer FAD conc. in assay 5 µM 5 µM
Ligand conc. in assay 20 µM 20 µM
Incubation period No Yes (1 hour, 37 °C)
Type of the measurement Kinetic (45 min) single point detection
Detection fluorescent fluorescent
Assay interference Yes No
Ligand autofluorescence No No
Dose response curve obtained for compound 13 using the HRP/Amplex red assay
(1 picture or pasted object on this page, not shown here)

For test [2], the target named is hDAO (Homo sapiens, UniProt P14920). As to the kind of experiment: Differential scanning fluorimetry (DSF) measurement. As to conditions: for Tm: hDAO without inhibitor 59.4 °C; for ~ΔTm: shift versus hDAO without inhibitor. Type of test: binding. Here is the method:
We started with compounds 8 and 9 (Figure 3). […] The activity of this 3-Cl substituted derivative (11) was lower than 100 nM therefore we synthesized the 3-Me derivative (12). […] DAAO binding and activity of representative compounds have been confirmed in orthogonal differential scanning fluorometry (DSF) and the coupled Horseradish peroxidase (HRP)/Amplex Red assays, respectively (see Supplementary materials). The designed compounds were docked into the protein structure obtained from the complex of 8 by the removal of the ligand. […]
Scheme S4. Synthesis of the headgroup […]
Results from differential scanning fluorimetry (DSF) measurements
Compound Structure DSF measurement […]
A general note: Differential scanning fluorimetry follows unfolding on heating by fluorescence.

Test [3] concerns DAAO. Also on record: method as in PMID 25001371. As to conditions: cited from earlier work.

Molecules are shown by their SMILES.

Sequence of hDAO (P14920 whole entry): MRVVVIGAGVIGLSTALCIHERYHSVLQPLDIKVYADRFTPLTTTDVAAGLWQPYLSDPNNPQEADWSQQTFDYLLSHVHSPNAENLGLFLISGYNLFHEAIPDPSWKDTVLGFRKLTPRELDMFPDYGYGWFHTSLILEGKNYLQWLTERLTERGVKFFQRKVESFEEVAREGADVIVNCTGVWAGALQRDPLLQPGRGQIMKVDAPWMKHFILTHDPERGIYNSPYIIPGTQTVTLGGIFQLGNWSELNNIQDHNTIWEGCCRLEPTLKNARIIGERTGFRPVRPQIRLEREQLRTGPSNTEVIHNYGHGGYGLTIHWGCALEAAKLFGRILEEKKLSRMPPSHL
T1 sequence (P14920 whole entry): as above

One may read the IC50 as the midpoint of a concentration-inhibition curve. As to `Cc1cccc(-c2cc(=O)oc3cc(O)c(CCc4cc(O)c(=O)[nH]n4)cc23)c1` [Compound 12], in test [1], the half-maximal inhibitory concentration (IC50) came to 52 nM.

Regarding `Cc1ccc(-c2cc(=O)oc3cc(O)c(CCc4cc(O)c(=O)[nH]n4)cc23)cc1` [Compound 10], the IC50 in test [1] came out at 474 nM. In general, Tm refers to the temperature at which the thermal transition is half complete. As to `O=c1cc(-c2ccccc2)c2cc(CCc3cc(O)c(=O)[nH]n3)c(O)cc2o1` [Compound 8, reference compound], the IC50 in test [1] is 112 nM. In test [2], the Tm is 74.7 °C and the “~ΔTm” value was approximately 15.3 °C.

With `O=c1cc(-c2cccc(Cl)c2)c2cc(CCc3cc(O)c(=O)[nH]n3)c(O)cc2o1` [Compound 11], the concentration for half-maximal inhibition (IC50) in test [1] was found to be 69 nM.

With `COc1cccc(-c2cc(=O)oc3cc(O)c(CCc4cc(O)c(=O)[nH]n4)cc23)c1` [Compound 13], the 50% inhibitory concentration (IC50) in test [1] amounted to 73 nM. Also, in test [2], the midpoint of thermal melting (Tm) was determined as 72.0 °C and the “~ΔTm” value is approximately 12.6 °C.

Take `O=C(O)CCc1cc2c(-c3ccccc3)cc(=O)oc2cc1O` [Compound 7]: the “competitive D-serine inhibitory properties” value in test [3] is on record as “low nanomolar range”.

Turning to `O=c1cc(-c2ccc(Cl)cc2)c2cc(CCc3cc(O)c(=O)[nH]n3)c(O)cc2o1` [Compound 9], in test [1], the IC50 worked out at 119 nM.
